Source: patent US20150342959A1, “METHODS AND COMPOSITIONS FOR SUSTAINED N[…]” (DemeRx, Inc., priority 2014, published 2015)

Experiments:
[1] = system: opioid-dependent participants; test: Opiate withdrawal scales (COWS, SOWS, OOWS); type: in vivo, human; conditions: first six hours following dosing
Protocol: Patients were evaluated based on the Clinical Opiate Withdrawal Scale (COWS), Subjective Opiate Withdrawal Scale (SOWS), and Objective Opiate Withdrawal Scale (OOWS) scoring systems over the period of time between administration of noribogaine (or placebo) until resumption of OST. These scales are outlined in Guidelines for the Psychosocially Assisted Pharmacological Treatment of Opioid Dependence, World Health Organization, Geneva (2009), Annex 10, which is incorporated herein by reference in its entirety. The scales measure the intensity of withdrawal symptoms, based on clinical, subjective, and objective indicia.

[2] = system: opioid-dependent participants; test: Time to resumption of morphine (opioid substitution treatment, OST); type: in vivo, human
[3] = system: healthy, drug-free male volunteers; test: Safety and tolerability of noribogaine in healthy humans (adverse events, vital signs, ECG); type: in vivo, human
Protocol: (§1) Pulse oximetry and capnography data were collected continuously using a GE Carescape B650 monitoring system from 2 hours prior to dosing and until six hours after dosing, and thereafter at 12, 24, 48 and 72 hours post-dosing. Additional oximetry data were collected at 120, 168 and 216 hours. Pupillary miosis was assessed by pupillometry. Dark-adapted pupil diameter was measured in triplicate using a Neuroptics PLR-200 pupillometer under standardized light intensity (<5 lux) pre-dose, and at 2, 4, 6, 12, 24, 48, 72, 96, 120, 168 and 216 hours post-dosing.
(§2) Safety and tolerability of noribogaine were tested in the group of volunteers from Example 1. Cold pressor testing was conducted in 1° C. water according to the method of Mitchell et al. (J Pain 5:233-237, 2004) pre-dose, 6, 24, 48, 72 and 216 hours post-dosing. Safety evaluations included clinical monitoring, recording of adverse events (AEs), safety laboratory tests, vital signs, ECG telemetry from −2 h to 6 h after dosing, and 12-lead electrocardiograms (ECGs) up to 216 hours post-dosing.

[4] = system: healthy, drug-free male volunteers; test: Cold pressor test (analgesic effect); type: in vivo, human; conditions: adjusted for baseline
Protocol: (§3) Summary statistics (means, standard deviations, and coefficients of variation) were determined for each dose group for safety laboratory test data, ECG and pharmacokinetic parameters, and pharmacodynamic variables. Categorical variables were analysed using counts and percentages. Dose-proportionality of AUC and Cmax was assessed using linear regression. The effect of dose on pharmacodynamic parameter values over time was assessed using two-factor analysis of variance (ANOVA). Pairwise comparisons (with Tukey-Kramer adjustment) between each dose group to the placebo were conducted at each time point using the least squares estimates obtained from the ANOVA, using SAS Proc Mixed (SAS ver 6.0).
Analgesic effect was assessed based on duration of hand immersion in ice water and on visual analog scale (VAS) pain scores upon hand removal from the water bath.
as §2

[5] = Pharmacokinetics in opioid-dependent patients (Phase IB study, serum noribogaine); conditions: 60, 120, 180 mg
[6] = system: healthy, drug-free male volunteers; test: Pupillometry (pupillary miosis, dark-adapted pupil diameter); type: in vivo, human; conditions: adjusted for baseline, p>0.9
Protocol: as §1, §3

CC[C@H]1CC2C[C@H]3c4[nH]c5ccc(O)cc5c4CCN(C2)C13 [noribogaine]
withdrawal symptoms (COWS, OOWS, SOWS) ([1]; 120 mg): fewer withdrawal symptoms than the other patients | withdrawal symptoms, noribogaine vs placebo ([1]; 60, 120, 180 mg): placebo generally experienced more withdrawal symptoms than patients who were administered noribogaine | Time to resumption of OST ([2]; 180 mg, longer than untreated patients (7 hours, not shown) or 60 mg): > 7 h | average time to resumption of opioids ([2]; single 120 mg dose): greater than 20 hours | adverse events reported ([3]; 3 mg dose group): five adverse events were reported by two subjects | adverse events reported ([3]; 10 mg dose group): one adverse event was reported by single subjects | adverse events reported ([3]; 30 mg dose group): one adverse event was reported by single subjects | changes in oximetry, capnography, respiratory rate ([3]; 3-60 mg): no changes in oximetry or capnography, or changes in respiratory rate | changes in vital signs or safety laboratory tests ([3]; 3-60 mg): no changes in vital signs or safety laboratory tests of note | VAS pain scores, each dose group vs placebo by ANOVA ([4]; p=0.17): no statistically significant differences | duration of hand immersion, each dose group vs placebo by ANOVA ([4]; p>0.9): no statistically significant differences | Maximum serum concentration of noribogaine (Cmax), dose dependence [5]: increased in a dose-dependent manner | pupil diameter, each dose group vs placebo by ANOVA [6]: no statistically significant differences
